Assay results published in paper PMC3671111, “A Phase I, open-label, randomized, crossover study in three parallel groups to evaluate the effect of Rifampicin, Ketoconazole, and Omeprazole on the pharmacokinetics of THC/CBD oromucosal spray in healthy volunteers” (SpringerPlus, 2013).
Marks after values point to notes of the source that are not given here.

Tests used:
[1] = Phase I drug-drug interaction PK, Group 2: THC/CBD spray alone or with ketoconazole, plasma by GC-MS; settings: for AUC(0-inf) / AUC(0-t) / Cmax / Kel / t½ / Tmax: plasma; for AUC(0-inf) / AUC(0-t) / Cmax / Kel / t½: mean (SD); for Tmax: median (range)
Method: (§1) Subjects received rifampicin on Days 1-9. […] Subjects received ketoconazole on Days 1-4.
(§2) Blood samples were collected at specified times and stored on ice (except rifampicin PK samples which were stored in iced water) prior to processing and storage. Plasma samples were separated by centrifugation (approximately 2500 rpm × 15 minutes at 4°C). Samples were stored in 4 mL amber glass screw top glass vials with PTFE lined screw caps labelled with Guys Drug Research (Quintiles Limited) labels. The aliquots were stored in clearly labelled containers in a freezer set at or below -20°C, until shipped for assay. Samples were shipped on dry ice at the appropriate time-points.
(§3) The assay validation was undertaken by Advanced Bioanalytical Service Laboratories (London, UK), who developed the technique after reviewing the literature, which was based on the methodology adopted by three different groups (Foltz et al. [1983]; Goodall & Basteyns [1995]; Kemp et al. [1995]), and designed with reference to FDA guidelines for industry (FDA Guidance for Industry [2012]). The method utilised protein precipitation, solvent extraction and derivatisation for the sample preparation and then sample analysis by capillary gas chromatography and detection by a mass spectrometer (GC-MS). The validation procedure investigated the calibration model with the best regression fit over the concentration range 0.1 - 100 ng/mL for CBD, THC and 11-OH-THC, as well as precision and accuracy of the method, stability, carry-over, and specificity.
(§4) Human plasma from healthy volunteers was used to prepare the standards and quality control (QC) samples, with analytes extracted using hexane/ethyl acetate (7:1 ratio), derivatised with N,O-Bis(trimethylsilyl)trifluoroacetamide. Analytic grade THC (Sigma, UK), CBD (Sigma, UK) and 11-OH-THC (Radian International and Cerillant, UK) were obtained, and three sets of CBD, THC and 11-OH-THC were used to support the study. Deuterated THC-d3 (Sigma, UK) was used as the internal standard. The GC-MS equipment was a Hewlett Packard 6890 Gas Chromatograph attached to a Hewlett Packard 5973 Mass Selective Detector. Data handling was carried out using an MS Chemstation System and the peak area ratio of the analytes to the internal standard was calculated in Excel (2000). The concentrations were calculated from the ratio data using least squares ln(y) on ln(x) regression performed in Excel (2000), and were then checked manually. Regression analysis was undertaken to find the regression model that best described the calibration data (for details, see ([Miller & Miller 1992])).
(§5) A 0.5 mL aliquot of test sample, QC or blank plasma was placed into a test tube. The blank plasma was spiked with 50 μL of the appropriate standard solution to produce the calibration standards. 50 μL of the internal standard was added to each test tube. The samples were then diluted by the addition of 500 μL of 0.1% (w/v) ascorbic acid and the protein precipitated by the addition of 1.0 mL of acetonitrile. The proteins were removed by centrifugation and the supernatant concentrated to 1 mL using nitrogen at 50 °C. The samples were then basified by the addition of 300 μL of 5M sodium hydroxide and the analytes extracted by the addition of 2.0 mL of 7:1 hexane:ethyl acetate. After mixing for 16 minutes the tubes were centrifuged and the top layer transferred into clean 3 dram vials. The solvent was removed using nitrogen at 70 °C and the dried extract resuspended in 100 μL of BSTFA and transferred to microvials, capped and placed at 70 °C for 30 minutes to derivatise the analytes. The microvials were then cooled and loaded onto the autosampler tray for analysis where 1 μL was injected onto the GC-MS system.

[2] = Phase I drug-drug interaction PK, Group 3: THC/CBD spray alone or with omeprazole, plasma by GC-MS; settings: for AUC(0-inf) / AUC(0-t) / Cmax / Kel / t½ / Tmax: n = 12, plasma; for AUC(0-inf) / AUC(0-t) / Cmax / Kel / t½: mean (SD); for Tmax: median (range); for Cmax and AUC % Co-efficient of Variation (CV%) range: inter-subject variability
Method: as §1, §2, §3, §4, §5

[3] = Phase I drug-drug interaction PK, Group 1: THC/CBD spray alone or with rifampicin, plasma by GC-MS; settings: for AUC(0-inf) / AUC(0-t) / Cmax / Kel / t½ / Tmax: n = 12, plasma; for AUC(0-inf) / AUC(0-t) / Cmax / Kel / t½: mean (SD); for Tmax: median (range)
Method: as §1, §2, §3, §4, §5

[4] = Ketoconazole and THC/CBD spray vs THC/CBD spray alone, no-interaction range 0.80 to 1.25
[5] = THC/CBD spray 4 sprays and ketoconazole 400 mg at end of 5-day dosing period, n = 11
[6] = THC/CBD spray alone, single dose 4 sprays (10.8/10 mg), ketoconazole group, n = 12
[7] = THC/CBD spray co-administered with ketoconazole vs alone
[8] = Omeprazole and THC/CBD spray vs THC/CBD spray alone, no-interaction range 0.80 to 1.25
[9] = THC/CBD spray 4 sprays and omeprazole 40 mg at end of 6-day dosing period
[10] = THC/CBD spray alone, single dose 4 sprays (10.8/10 mg), omeprazole group
[11] = THC/CBD spray co-administered with omeprazole vs alone
[12] = Rifampicin and THC/CBD spray vs THC/CBD spray alone, no-interaction range 0.80 to 1.25
[13] = THC/CBD spray 4 sprays and rifampicin 600 mg after repeated daily dosing
[14] = THC/CBD spray alone, single dose 4 sprays (10.8/10 mg), rifampicin group
[15] = THC/CBD spray co-administered with rifampicin vs alone

## 11-hydroxy-THC [11-OH-THC]
[1]; [4]
  Geometric mean ratio of AUC(0-inf), point estimate: 3.616
  Geometric mean ratio of AUC(0-t), point estimate: 3.823
  Geometric mean ratio of Cmax, point estimate: 3.074
[1]; [5]
  AUC(0-inf): 95.26 (48.93) h*ng/mL
  AUC(0-t): 84.34 (40.18) h*ng/mL
  Cmax: 10.92 (3.83) ng/mL
  Kel: 0.095 (0.016) h^-1
  t½: 7.48 (1.39) h
  Tmax: 2.25 (1.50-4.13) h
[1]; [6]
  AUC(0-inf): 27.13 (13.34)^d h*ng/mL
  AUC(0-t): 21.78 (11.34) h*ng/mL
  Cmax: 3.59 (1.67) ng/mL
  Kel: 0.076 (0.014)^d h^-1
  t½: 9.51 (2.18)^d h
  Tmax: 1.50 (1.00-6.00) h
[1]; [7]
  % change in mean Tmax: +50%
  % change in t1/2: -21%
[1]; THC/CBD spray with ketoconazole vs THC/CBD spray alone
  Change in mean Cmax: +204%
[1]; suggested by increased exposure with ketoconazole
  Substrate for the isoenzyme CYP3A4 (conclusion from ketoconazole interaction): substrates
[1]; vs THC/CBD spray alone
  AUC, times higher after CYP3A4 inhibition by ketoconazole: 3.8 times
  Cmax, times higher after CYP3A4 inhibition by ketoconazole: 3.1 times
[2]; [8]
  Geometric mean ratio of AUC(0-inf), point estimate: 0.869
  Geometric mean ratio of AUC(0-t), point estimate: 0.869
  Geometric mean ratio of Cmax, point estimate: 0.866
[2]; [9]
  AUC(0-inf): 19.80 (9.74) h*ng/mL
  AUC(0-t): 17.69 (9.05) h*ng/mL
  Cmax: 2.84 (1.40) ng/mL
  Kel: 0.095 (0.029) h^-1
  t½: 7.98 (2.82) h
  Tmax: 1.52 (1.23-2.50) h
[2]; [10]
  AUC(0-inf): 24.17 (16.47) h*ng/mL
  AUC(0-t): 21.52 (14.76) h*ng/mL
  Cmax: 3.48 (2.27) ng/mL
  Kel: 0.114 (0.062) h^-1
  t½: 7.30 (2.87) h
  Tmax: 2.00 (1.25-3.02) h
[2]; THC/CBD spray at end of 6-day omeprazole dosing
  Plasma concentrations and PK parameters compared with THC/CBD spray alone: marginally lower
[2]; [11]
  % change in Tmax: -24%
  % change in t1/2: +9%
[2]; at the clinically relevant dose of THC/CBD spray investigated
  Substrate for the isoenzyme CYP2C19 (conclusion from omeprazole interaction): not substrates
[2]; THC/CBD spray alone, omeprazole group
  Cmax and AUC % Co-efficient of Variation (CV%) range: 48-69%
[2]; THC/CBD spray in combination with omeprazole
  Cmax and AUC % Co-efficient of Variation (CV%) range: 40-67%
[3]; [12]
  Geometric mean ratio of AUC(0-inf), point estimate: 0.131
  Geometric mean ratio of AUC(0-t), point estimate: 0.099
  Geometric mean ratio of Cmax, point estimate: 0.140
[3]; [13]
  AUC(0-inf): 2.78 (0.68)^c h*ng/mL
  AUC(0-t): 1.84 (0.79) h*ng/mL
  Cmax: 0.45 (0.18) ng/mL
  Kel: 0.189 (0.074)^c h^-1
  t½: 4.19 (1.62)^c h
  Tmax: 1.75 (1.50-2.57) h
[3]; [14]
  AUC(0-inf): 21.59 (8.76) h*ng/mL
  AUC(0-t): 18.61 (7.81) h*ng/mL
  Cmax: 3.38 (1.95) ng/mL
  Kel: 0.083 (0.042) h^-1
  t½: 9.88 (3.89) h
  Tmax: 1.38 (0.50-6.02) h
[3]; [15]
  % change in mean t1/2: -58%
  % change in median Tmax: +27%
[3]; THC/CBD spray with rifampicin vs THC/CBD spray alone
  Change in mean Cmax: -87%
